Assay results as given in patent publication US20240173422A1, “BICYCLIC PEPTIDE LIGAND DRUG CONJUGATES” (BICYCLETX LIMITED, priority 2019, published 2024).
Each block holds one substance with its values, some of them ahead of it. Numbered stars: 1 amine (or outer) side, 2 acyl side, 3 side chain; on linkers, the order of the positions; unused ones are H or OH. Bridge positions count the residues as written; N and C are the ends. Square brackets hold non-standard residues; d marks the D form. I, II: the chains in the order shown. * marks the point of attachment. X2 = O=C(CCOCCOCCOCCOCCOCCOCCOCCOCCOCCOCCC(=O)[*:2])[*:1]; TATA = O=C(CC[*:1])N1CN(C(=O)CC[*:2])CN(C(=O)CC[*:3])C1; Dolaproine = CO[C@@H]([C@@H]1CCCN1)[C@@H](C)C(=O)O; Dil = CC[C@H](C)[C@H](NC)[C@@H](CC(=O)O)OC; 1Nal = N[C@@H](Cc1cccc2ccccc12)C(=O)O; X3 = O=C(CCCC(=O)[*:2])NCCC(=O)[*:1]; PABC = O=C(OCc1ccc(N[*:1])cc1)[*:2]; X1 = C[C@@H](N*)[C@@H](O)c1ccccc1; Hyp = O=C(O)[C@@H]1C[C@@H](O)CN1; Cit = NC(=O)NCCC[C@H](N)C(=O)O; NMeV = CN[C@H](C(=O)O)C(C)C; Sar = CNCC(=O)O

Experiments:
[1] = biological target: Human Nectin-4 (residues Gly32-Ser349; NCBI RefSeq: NP_112178.2) with C-terminal FLAG tag, biotinylated (human) (UniProt Q96NY8); test: SPR (Biacore 3000), biotinylated Nectin-4 captured on streptavidin CM5 chip, peptide as analyte
[2] = biological target: Human Nectin-4 (residues Gly32-Ser349; NCBI RefSeq: NP_112178.2) with C-terminal FLAG tag, biotinylated (human) (UniProt Q96NY8); test: SPR binding assay, against BCY8126 as reference
[3] = tested on: NCI-H292 xenograft; test: In vivo efficacy study in NCI-H292 xenograft in Balb/c nude mice; parameters: species or system Balb/c nude mice (Mus Musculus); details: 3 mpk, iv
Excerpt: In Vivo Efficacy Study of BCY8244 in Treatment of NCI-H292 Xenograft in Balb/c Nude Mice
The objective of the research is to evaluate the in vivo anti-tumor efficacy of BCY8244 in treatment of NCI-H292 xenograft in Balb/c nude mice.
• Species: Mus Musculus • Strain: Balb/c nude • Age: 6-8 weeks • Sex: female • Body weight: 18-22 g • Number of animals: 43 mice plus spare • Animal supplier: Shanghai Lingchang Biotechnology Experimental Animal Co. Ltd
The NCI-H292 tumor cells were maintained in vitro as a monolayer culture in RPMI-1640 medium supplemented with 10% heat inactivated fetal bovine serum at 37° C. in an atmosphere of 5% CO2 in air. The tumor cells were routinely subcultured twice weekly by trypsin-EDTA treatment. The cells growing in an exponential growth phase were harvested and counted for tumor inoculation.
Each mouse was inoculated subcutaneously at the right flank with NCI-H292 tumor cells (10×10^6) in 0.2 ml of PBS for tumor development. 43 animals were randomized when the average tumor volume reached 168 mm^3. The test article administration and the animal numbers in each group were shown in the experimental design table.
The major endpoint was to see if the tumor growth could be delayed or mice could be cured. Tumor volume was measured three times weekly in two dimensions using a caliper, and the volume was expressed in mm^3 using the formula: V=0.5 a×b^2 where a and b are the long and short diameters of the tumor, respectively. The tumor size was then used for calculations of T/C value. The T/C value (in percent) is an indication of antitumor effectiveness; T and C are the mean volumes of the treated and control groups, respectively, on a given day. TGI was calculated for each group using the formula: TGI (%)=[1−(Ti−T0)/(Vi−V0)]×100; Ti is the average tumor volume of a treatment group on a given day, T0 is the average tumor volume of the treatment group on the day of treatment start, Vi is the average tumor volume of the vehicle control group on the same day with Ti and V0 is the average tumor volume of the vehicle group on the day of treatment start.
Summary statistics, including mean and the standard error of the mean (SEM), were provided for the tumor volume of each group at each time point.
Statistical analysis of difference in tumor volume among the groups was conducted on the data obtained at the best therapeutic time point after the final dose.
A t-test was performed to compare tumor volume among groups, […]. All data were analyzed using GraphPad Prism 5.0. P<0.05 was considered to be statistically significant.
Tumor growth inhibition rate for test articles in the NCI-H292 xenograft model was calculated based on tumor volume measurements at day 14 after the start of treatment.

[4] = Body weight monitoring in the NCI-H292 xenograft study; format: in vivo, Balb/c nude mice (Mus Musculus); details: 3 mpk, iv, qw
Procedure: All the procedures related to animal handling, care and the treatment in the study were performed according to the guidelines approved by the Institutional Animal Care and Use Committee (IACUC) of WuXi AppTec, following the guidance of the Association for Assessment and Accreditation of Laboratory Animal Care (AAALAC). At the time of routine monitoring, the animals were checked for any effects of tumor growth and treatments on normal behavior such as mobility, food and water consumption (by looking only), body weight gain/loss, eye/hair matting and any other abnormal effect as stated in the protocol. Death and observed clinical signs were recorded on the basis of the numbers of animals within each subset.

[5] = biological target: T1, human Nectin-4 (Homo sapiens, UniProt Q96NY8); test: Nectin-4 Biacore SPR binding assay
T1 sequence (Q96NY8 32-349): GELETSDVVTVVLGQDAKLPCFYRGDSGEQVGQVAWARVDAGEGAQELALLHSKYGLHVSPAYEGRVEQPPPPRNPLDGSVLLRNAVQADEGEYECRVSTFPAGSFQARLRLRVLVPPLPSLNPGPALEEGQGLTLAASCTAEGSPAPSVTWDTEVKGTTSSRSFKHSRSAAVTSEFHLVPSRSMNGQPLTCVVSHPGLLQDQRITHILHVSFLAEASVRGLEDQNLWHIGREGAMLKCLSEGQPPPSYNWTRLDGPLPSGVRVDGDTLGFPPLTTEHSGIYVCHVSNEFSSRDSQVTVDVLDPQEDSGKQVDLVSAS

Kd [1]: 1.46 nM
koff [1]: 0.000969 s⁻¹
kon [1]: 662000 M⁻¹ s⁻¹
Substance: BCY8126 (Nectin-4 monomer) (peptide)

fold greater binding activity than BCY8126 [2]: 3.5 fold
koff [1]: 0.000319 s⁻¹
Substance: BCY8244 (Nectin-4 homo-tandem), BDC of formula (A) (peptide)

Substance: I: [Sar][Sar][Sar][Sar][Sar][Sar][Sar][Sar][Sar][Sar]CP[1Nal][dD]CMKDWSTP[Hyp]WC-NH2 / II: [Sar][Sar][Sar][Sar][Sar][Sar][Sar][Sar][Sar][Sar]CP[1Nal][dD]CMKDWSTP[Hyp]WC-NH2 / III: V[Cit][PABC][NMeV]V[Dil][Dolaproine]-X1 / IV: V[Cit][PABC][NMeV]V[Dil][Dolaproine]-X1 (linker I:11-I:15-I:25, II:11-II:15-II:25 via TATA; linker I:17-II:17 via X2; linker I:N-III:N, II:N-IV:N via X3; C-terminus assumed) [BCY8244]
tumor inhibitory effect ([3]; NCI-H292 xenograft, qw, 3 mg/kg): excellent levels of tumor inhibitory effect and regressed the tumors potently
Tumor volume (mean ± SEM) ([3]; day 0 after the start of treatment, qw): 168 ± 20 mm^3
Tumor volume (mean ± SEM) ([3]; day 2 after the start of treatment, qw): 187 ± 20 mm^3
Tumor volume (mean ± SEM) ([3]; day 4 after the start of treatment, qw): 180 ± 48 mm^3
Tumor volume (mean ± SEM) ([3]; day 7 after the start of treatment, qw): 155 ± 33 mm^3
Tumor volume (mean ± SEM) ([3]; day 9 after the start of treatment, qw): 141 ± 29 mm^3
Tumor volume (mean ± SEM) ([3]; day 11 after the start of treatment, qw): 96 ± 23 mm^3
TGI ([3]; day 14, qw): 109.0%
Tumor volume (mean ± SEM) ([3]; day 14, qw (Table 5)): 108 ± 15 mm^3
T/C ([3]; day 14, qw, treated/control mean tumor volume): 12.8%
Tumor volume (mean ± SEM) ([3]; day 14 after the start of treatment, qw (Table 4)): 108 ± 15 mm^3
body weight [4]: maintained the bodyweight well
Kd [5]: 0.425 nM
binding in the SPR binding assay [5]: good levels of binding
kd ([5]; Biacore SPR, biotinylated human Nectin-4, 25° C.): 0.000319 s⁻¹
fold greater binding activity in the SPR binding assay than monomeric BCY8126 ([5]; homo-tandem versus monomer): 3.5 fold
kon ([5]; read-out: ka): 750000 M⁻¹ s⁻¹
